Among the data in US20250296938A1, “Compounds that Interact with the Ras Superfamily for the Treatment of Cancers, Inflammatory Diseases, Rasopathies, and Fibrotic Disease” (SHY Therapeutics, LLC, priority 2018, published 2025) are inhibition values, retold here.

Molecules are shown by their SMILES.

One test has as its system MAPK phosphorylation. The experiment in a line: MAPK cell-based phosphorylation assay (ELISA or Western), PANC-1. The settings on record: Homo sapiens; 10 μM, 6 hours, EGF stimulation, PANC-1. How it is done: Cell lines: Tumor-derived pancreatic cancer cell line PANC-1 was purchased from ATCC and were and grown in DMEM-High Glucose supplemented with penicillin (100 U/mL), streptomycin (100 μg/mL), and 10% heat-inactivated FBS at 37° C. in a humidified incubator with 5% CO2.
Method: Cells were plated at 7500 cells/well density in a 96-well plate, allowed 3 hours to adhere to the plate, then starved in DMEM plus 0.5% FBS overnight. The small molecules to be tested were added to the cells in the final concentration of 10 μM in the presence of 0.3% DMSO for 6 hours incubation at 37° C. For IC50 value determination, serial dilutions of compounds were added to cells under the same conditions. Next, cells were stimulated with 1.5 ng/mL EGF for 15 minutes followed by cell fixation with 4% formaldehyde in PBS at room temperature for 20 minutes. Cell-direct ELISA determined phosphorylation level of MAPK.
Cell-direct ELISA: For each well, cells were permeabilized with 0.1% PBS-Triton X-100, quenched with 0.06% H2O2 in 0.1% PBS-Triton X-100, and probed with anti-phospho-MAPK antibodies (R&D Systems) followed by HRP-conjugated secondary antibody (Jackson Immunoresearch, West Grove, PA). Next, a 50 μM solution of the fluorescent substrate AmpliFlu Red (Sigma) was added and incubated at RT for 20 minutes. At the end of the incubation time, phosphorylation level of MAPK was determined by measuring fluorescence at 595 nm using SpectraMax M3 plate reader (Molecular Devices).
Cell lines: Human NSCLC cells NCI-H1975 and NCI-H1299, and tumor-derived pancreatic cancer cell lines Panc-1, MIA-PaCa-2, and BxPC3, were all purchased from American Type Culture Collection and grown in complete RPMI medium (BxPC3, NCI-H1975 and NCI-H1299) or DMEM-High Glucose (Panc1 and MIA-PaCa-2), supplemented with penicillin (100 U/mL), streptomycin (100 μg/mL), and 10% heat-inactivated FBS at 37° C. in a humidified incubator with 5% CO2.
(§1) Method: Cells were plated at 350000 cells/well density in a 12-well plate, allowed 3 hours to adhere to the plate, then starved in the appropriate medium in the presence of 0.5% FBS overnight. The small molecules to be tested were added to the cells in the final concentration of 10 μM in the presence of 0.3% DMSO for 6 hours incubation at 37° C. For IC50 value determination, serial dilutions of compounds were added to cells under the same conditions. Next, cells were stimulated with 1.5 ng/ml EGF for 15 minutes then cells were lysed with lysis buffer containing 1% Triton X-100, EDTA, and Halt™ Protease & Phosphatase Inhibitor Cocktail (Thermo Scientific). Protein concentration was assessed by BCA protein assay (Thermo Scientific). Phosphorylation level of MAPK was determined by western blot.
(§2) Western blot protocol: Equal amounts of protein (15-50 μg) were separated by SDS-PAGE and transferred to nitrocellulose membranes (Invitrogen by Thermo Fisher Scientific). The membrane was stained with Ponceau S Stain (Boston BioProducts) to verify uniform protein loading. Membranes were blocked with 10% milk and phosphorylation levels of MAPK were assessed by incubating overnight at 4° C. with anti-phospho-p44/42 (Thr202/Tyr204) antibody (Cell Signaling) followed by HRP-conjugated secondary antibody (Jackson Immunoresearch, West Grove, PA). Bands were incubated in Amersham ECL Prime Western Blotting Detection Reagent (GE Healthcare) and visualized using the ChemiDoc MP imaging system (Bio-Rad).

Another test has as its system AKT phosphorylation. As to the kind of experiment: Western AKT cell-based phosphorylation assay, PANC-1. The settings on record: Homo sapiens, 6 hours, EGF stimulation, PANC-1. How it is done:
Human tumor-derived pancreatic cancer cell line Panc-1 was purchased from American Type Culture Collection and grown in complete DMEM-High Glucose supplemented with penicillin (100 U/mL), streptomycin (100 μg/mL), and 10% heat-inactivated FBS at 37° C. in a humidified incubator with 5% CO2.
as §1, with “C.” for “C. For IC50 value determination, serial dilutions of compounds were added to cells under the same conditions.”, “Akt” for “MAPK”
as §2, with “Akt” for “MAPK”, “anti-phospho-Akt (Ser473)” for “anti-phospho-p44/42 (Thr202/Tyr204)”

Usually inhibition stands for the drop in the measured response relative to a control, in per cent. Low readings indicate little suppression, high ones strong suppression. For `Cn1ccc(-c2sc3nc(-c4nccn4C)nc(NC4CCOCC4)c3c2-c2ccccc2)n1` [drawing 404], the inhibition at 10 µM in the test with MAPK phosphorylation and in the test with AKT phosphorylation was 1 to 25% throughout.

`Cn1ccc(-c2sc3nc(-c4nccn4C)nc(NCC4CCOC4)c3c2-c2ccccc2)n1` (centres unmarked) [drawing 405]: the figures for the inhibition at 10 µM in the test on MAPK phosphorylation and with AKT phosphorylation were 1 to 25% and 0%, respectively.

Turning to `Cn1ccc(-c2sc3nc(-c4nccn4C)nc(N4CCC5(CCOC5)C4)c3c2-c2ccccc2)n1` (centres unmarked) [drawing 409], the inhibition at 10 µM with MAPK phosphorylation and in the test on AKT phosphorylation was 0% each time.

Regarding `COC1CCN(c2nc(-c3nccn3C)nc3sc(-c4ccn(C)n4)c(-c4ccccc4)c23)CC1` [drawing 410], the inhibition at 10 µM in the test on MAPK phosphorylation was 76 to 100%; in the test on AKT phosphorylation, 0%.

Consider `COCCCNc1nc(-c2nccn2C)nc2sc(-c3ccn(C)n3)c(-c3ccc(OC)cc3)c12` [drawing 411], for which the inhibition at 10 µM in the test on MAPK phosphorylation and with AKT phosphorylation was 0% in each case.

For `COCC(C)Nc1nc(-c2nccn2C)nc2sc(-c3ccn(C)n3)c(-c3ccc(OC)cc3)c12` (centres unmarked) [drawing 412], the inhibition at 10 µM in the test with MAPK phosphorylation is 1 to 25%; in the test with AKT phosphorylation, 0%.

Take `COc1ccc(-c2c(-c3ccn(C)n3)sc3nc(-c4nccn4C)nc(N4CCC(OC)C4)c23)cc1` (centres unmarked) [drawing 413]: the inhibition at 10 µM in the test on MAPK phosphorylation was 1 to 25%; with AKT phosphorylation it was 0%.

`COC1CCN(c2nc(-c3nccn3C)nc3sc(-c4ccccc4Cl)c(-c4cscn4)c23)C1` (centres unmarked) [drawing 415]: the inhibition at 10 µM with MAPK phosphorylation and with AKT phosphorylation was 0% in each case.

As to `COc1cccc(-c2sc3nc(-c4nccn4C)nc(N4CCC(OC)C4)c3c2-c2cscn2)c1` (centres unmarked) [drawing 417], the inhibition at 10 µM in the test with MAPK phosphorylation and with AKT phosphorylation was 0% in each case.

Regarding `COCCNc1nc(-c2cn(C)cn2)nc2sc(-c3cccc(OC)c3Cl)c(-c3ccc(OC)cc3)c12` [drawing 423], the inhibition at 10 µM with MAPK phosphorylation is 76 to 100%; with AKT phosphorylation, 0%.

As for `COCCNc1nc(-c2cn(C)cn2)nc2sc(-c3cc(OC)ccc3Cl)c(-c3ccc(OC)cc3)c12` [drawing 424], the inhibition at 10 µM in the test with MAPK phosphorylation and with AKT phosphorylation was 76 to 100% each time.

On to `COc1cc(-c2sc3nc(-c4nccn4C)nc(N4CCC(OC)C4)c3c2-c2ccccc2)ccn1` (centres unmarked) [drawing 427], for which the figures for the inhibition at 10 µM in the test on MAPK phosphorylation and with AKT phosphorylation were 51 to 75% and 0%, respectively.

In the case of `COC1CCN(c2nc(-c3nccn3C)nc3sc(-c4ccnn4C)c(-c4ccccc4)c23)C1` (centres unmarked) [drawing 428], the inhibition at 10 µM with MAPK phosphorylation and with AKT phosphorylation was 0% each time.

Turning to `COC1CCN(c2nc(-c3nccn3C)nc3sc(-c4cccnc4)c(-c4ccccc4)c23)C1` (centres unmarked) [drawing 429], the inhibition at 10 µM is 51 to 75% in the test with MAPK phosphorylation and 0% in the test on AKT phosphorylation.

Regarding `COc1ccc(-c2sc3nc(-c4nccn4C)nc(N4CCC(OC)C4)c3c2-c2ccccc2)cn1` (centres unmarked) [drawing 430], the values for the inhibition at 10 µM with MAPK phosphorylation and in the test on AKT phosphorylation were 1 to 25% and 0%, respectively.

As for `COc1ncccc1-c1sc2nc(-c3nccn3C)nc(N3CCC(OC)C3)c2c1-c1ccccc1` (centres unmarked) [drawing 431], the inhibition at 10 µM in the test on MAPK phosphorylation was 76 to 100%; in the test on AKT phosphorylation, 0%.

In the case of `COC1CCN(c2nc(-c3nccn3C)nc3sc(-c4cnc(C5CC5)o4)c(-c4ccccc4)c23)C1` (centres unmarked) [drawing 432], the inhibition at 10 µM in the test on MAPK phosphorylation was 51 to 75%; in the test on AKT phosphorylation it was 0%.

With `COCCn1cc(-c2sc3nc(-c4nccn4C)nc(N4CCC(OC)C4)c3c2-c2ccccc2)cn1` (centres unmarked) [drawing 433], the inhibition at 10 µM with MAPK phosphorylation is 51 to 75%; in the test on AKT phosphorylation, 0%.

As for `COC1CCN(c2nc(-c3nccn3C)nc3sc(-c4ccncc4C)c(-c4ccccc4)c23)C1` (centres unmarked) [drawing 434], the inhibition at 10 µM in the test on MAPK phosphorylation and in the test on AKT phosphorylation was 0% each time.

As for `COC1CCN(c2nc(-c3nccn3C)nc3sc(-c4cnn(C)c4)c(-c4ccccc4)c23)C1` (centres unmarked) [drawing 435], the inhibition at 10 µM was 1 to 25% in the test with MAPK phosphorylation and 0% in the test with AKT phosphorylation.

For `COC1CCN(c2nc(-c3nccn3C)nc3sc(-c4ccc(CO)cc4)c(-c4ccccc4)c23)C1` (centres unmarked) [drawing 436], the inhibition at 10 µM was 51 to 75% in the test on MAPK phosphorylation and 0% in the test with AKT phosphorylation.

For `COC1CCN(c2nc(-c3nccn3C)nc3sc(-c4ccc(N)nc4C)c(-c4ccccc4)c23)C1` (centres unmarked) [drawing 437], the inhibition at 10 µM in the test with MAPK phosphorylation was 26 to 50%; in the test with AKT phosphorylation, 0%.

With `COC1CCN(c2nc(-c3nccn3C)nc3sc(-c4ccccc4CO)c(-c4ccccc4)c23)C1` (centres unmarked) [drawing 438], the inhibition at 10 µM in the test on MAPK phosphorylation and in the test on AKT phosphorylation was 0% throughout.

`COc1nscc1-c1sc2nc(-c3nccn3C)nc(N3CCC(OC)C3)c2c1-c1ccccc1` (centres unmarked) [drawing 439]: the inhibition at 10 µM was 51 to 75% with MAPK phosphorylation and 0% in the test on AKT phosphorylation.

With `COC1CCN(c2nc(-c3nccn3C)nc3sc(-c4ccnc(N(C)C)c4)c(-c4ccccc4)c23)C1` (centres unmarked) [drawing 440], the inhibition at 10 µM with MAPK phosphorylation is 76 to 100%; with AKT phosphorylation, 0%.

For `COC1CCN(c2nc(-c3nccn3C)nc3sc(Br)c(-c4ccccc4)c23)C1` (centres unmarked) [drawing 441], the inhibition at 10 µM with MAPK phosphorylation was 26 to 50%; with AKT phosphorylation, 0%.

`COc1ccc(-c2c(-c3cccc(OC)c3F)sc3nc(-c4nccn4C)nc(N4CCC(OC)C4)c23)cc1` (centres unmarked) [drawing 442]: the inhibition at 10 µM in the test on MAPK phosphorylation and in the test with AKT phosphorylation was 0% each time.

With `COCC1CN(c2nc(-c3nccn3C)nc3sc(-c4cccc(OC)c4F)c(-c4ccc(OC)cc4)c23)C1` [drawing 443], the inhibition at 10 µM in the test with MAPK phosphorylation was 76 to 100%; in the test with AKT phosphorylation, 0%.

`COc1cccc(-c2sc3nc(-c4nccn4C)nc(N4CCC(OC)C4)c3c2-c2ccccc2)c1F` (centres unmarked) [drawing 444]: the inhibition at 10 µM in the test on MAPK phosphorylation and in the test on AKT phosphorylation was 76 to 100% in each case.

As for `COc1c(O)nc(-c2ccccn2)nc1Oc1cnn(C)c1` [drawing 445], the figures for the inhibition at 10 µM in the test on MAPK phosphorylation and with AKT phosphorylation were 1 to 25% and 0%, respectively.

In the case of `COc1c(O)nc(-c2ccccn2)nc1Oc1ccc2ncccc2c1` [drawing 446], the inhibition at 10 µM in the test on MAPK phosphorylation and in the test on AKT phosphorylation was 0% in each case.

Consider `COc1c(O)nc(-c2ccccn2)nc1Oc1cccnc1` [drawing 447], for which the inhibition at 10 µM in the test on MAPK phosphorylation and in the test on AKT phosphorylation was 0% in each case.

With `COc1cccc(Oc2nc(-c3ccccn3)nc(O)c2OC)c1` [drawing 448], the inhibition at 10 µM in the test on MAPK phosphorylation and in the test on AKT phosphorylation was 0% each time.

`COc1ccc(Oc2nc(-c3ccccn3)nc(O)c2OC)cc1` [drawing 449]: the inhibition at 10 µM in the test with MAPK phosphorylation and with AKT phosphorylation was 0% each time.
